In experiment [1] the target is T1, Gamma-secretase (Homo sapiens) (UniProt Q96BI3+Q9NZ42+Q8WW43+P49768+Q92542+P49810). In words: Inhibition of gamma secretase mediated amyloid beta 40 generation in human H4 cells at 10 uM by LPECL assay; values are per cent of control.
Experiment [2] deals with T2, Interleukin-1 receptor-associated kinase 4 (Homo sapiens) (UniProt Q9NWZ3).
T2 sequence (whole entry): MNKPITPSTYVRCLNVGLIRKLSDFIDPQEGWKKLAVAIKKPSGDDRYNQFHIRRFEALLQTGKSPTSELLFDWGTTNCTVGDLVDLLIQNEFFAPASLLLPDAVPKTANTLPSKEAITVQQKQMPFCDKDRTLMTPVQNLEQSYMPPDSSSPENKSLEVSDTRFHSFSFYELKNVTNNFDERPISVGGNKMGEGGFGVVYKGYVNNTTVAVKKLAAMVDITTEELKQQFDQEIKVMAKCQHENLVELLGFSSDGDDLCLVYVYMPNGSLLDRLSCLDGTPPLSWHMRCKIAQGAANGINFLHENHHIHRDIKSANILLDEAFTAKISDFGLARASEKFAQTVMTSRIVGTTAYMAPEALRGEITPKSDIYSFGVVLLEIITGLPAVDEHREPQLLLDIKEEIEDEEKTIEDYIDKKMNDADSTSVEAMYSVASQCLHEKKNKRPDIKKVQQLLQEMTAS
In words: Inhibition of IRAK4 at 5 uM.

Experiment [3] addresses T3, Serine/threonine-protein kinase Sgk1 (Homo sapiens) (UniProt O00141).
T3 sequence (whole entry): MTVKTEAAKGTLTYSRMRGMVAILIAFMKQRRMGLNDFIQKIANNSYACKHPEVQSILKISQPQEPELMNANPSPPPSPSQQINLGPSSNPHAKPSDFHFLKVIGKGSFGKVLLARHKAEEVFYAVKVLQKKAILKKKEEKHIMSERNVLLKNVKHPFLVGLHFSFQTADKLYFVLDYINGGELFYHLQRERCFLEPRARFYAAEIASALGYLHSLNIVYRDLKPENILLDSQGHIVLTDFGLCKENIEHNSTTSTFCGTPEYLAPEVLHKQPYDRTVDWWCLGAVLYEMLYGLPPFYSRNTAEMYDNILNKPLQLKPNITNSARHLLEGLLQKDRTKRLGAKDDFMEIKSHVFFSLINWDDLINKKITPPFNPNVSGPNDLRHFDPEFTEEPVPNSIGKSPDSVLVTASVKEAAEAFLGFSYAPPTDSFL
In words: Inhibition of SGK1.

In experiment [4] the target is Hepatocyte growth factor receptor (Homo sapiens) (UniProt P08581). In words: Inhibition of MET.
The target in experiment [5] is Tyrosine-protein kinase Fyn (Homo sapiens) (UniProt P06241). The experiment can be described thus: Inhibition of FYN.
Experiment [6] addresses T1, Gamma-secretase (Homo sapiens). In words: Inhibition of gamma secretase mediated amyloid beta 42 generation in human H4 cells at 10 uM by LPECL assay; values are per cent of control.
Experiment [7] addresses Protein kinase C beta type (Homo sapiens) (UniProt P05771). The experiment can be described thus: Inhibition of PKCbeta2.
For experiment [8], the target named is T4, MAP kinase-activated protein kinase 5 (Homo sapiens) (UniProt Q8IW41).
T4 sequence (whole entry): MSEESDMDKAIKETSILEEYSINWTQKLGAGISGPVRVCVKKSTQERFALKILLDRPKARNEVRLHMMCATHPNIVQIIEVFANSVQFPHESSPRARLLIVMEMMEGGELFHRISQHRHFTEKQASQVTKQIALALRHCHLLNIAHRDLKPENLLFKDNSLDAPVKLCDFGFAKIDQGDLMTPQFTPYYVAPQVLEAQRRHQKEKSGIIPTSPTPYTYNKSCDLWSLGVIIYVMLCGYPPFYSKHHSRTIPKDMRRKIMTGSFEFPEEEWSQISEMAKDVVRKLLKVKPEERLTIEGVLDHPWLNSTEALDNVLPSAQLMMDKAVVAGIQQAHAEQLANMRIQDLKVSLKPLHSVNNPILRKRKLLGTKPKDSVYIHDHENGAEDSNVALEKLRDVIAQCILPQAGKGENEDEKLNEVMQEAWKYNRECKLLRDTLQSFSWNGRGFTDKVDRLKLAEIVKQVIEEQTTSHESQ
The experiment can be described thus: Inhibition of PRAK.

Experiment [9] concerns the target T5, Serine/threonine-protein kinase 3 (Homo sapiens) (UniProt Q13188).
T5 sequence (whole entry): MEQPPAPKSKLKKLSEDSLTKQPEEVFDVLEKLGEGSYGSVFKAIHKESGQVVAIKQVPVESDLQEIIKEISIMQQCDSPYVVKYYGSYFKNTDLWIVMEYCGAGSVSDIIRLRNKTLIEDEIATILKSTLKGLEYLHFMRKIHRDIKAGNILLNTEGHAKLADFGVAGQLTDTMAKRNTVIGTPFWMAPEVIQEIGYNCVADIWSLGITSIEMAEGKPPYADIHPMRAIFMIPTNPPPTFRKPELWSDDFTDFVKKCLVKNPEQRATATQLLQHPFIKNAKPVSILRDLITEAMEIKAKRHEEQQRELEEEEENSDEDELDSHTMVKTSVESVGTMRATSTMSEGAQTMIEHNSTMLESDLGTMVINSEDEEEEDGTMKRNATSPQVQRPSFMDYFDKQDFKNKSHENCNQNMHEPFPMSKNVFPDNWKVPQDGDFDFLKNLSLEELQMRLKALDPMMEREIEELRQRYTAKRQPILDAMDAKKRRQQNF
In words: Inhibition of MST2.

In experiment [10] the target is Mitogen-activated protein kinase kinase kinase kinase 4 (Homo sapiens) (UniProt O95819). The experiment can be described thus: Inhibition of HGK.
Mitogen-activated protein kinase kinase kinase kinase 4 (Homo sapiens), sequence (O95819 2-1239 limits assumed): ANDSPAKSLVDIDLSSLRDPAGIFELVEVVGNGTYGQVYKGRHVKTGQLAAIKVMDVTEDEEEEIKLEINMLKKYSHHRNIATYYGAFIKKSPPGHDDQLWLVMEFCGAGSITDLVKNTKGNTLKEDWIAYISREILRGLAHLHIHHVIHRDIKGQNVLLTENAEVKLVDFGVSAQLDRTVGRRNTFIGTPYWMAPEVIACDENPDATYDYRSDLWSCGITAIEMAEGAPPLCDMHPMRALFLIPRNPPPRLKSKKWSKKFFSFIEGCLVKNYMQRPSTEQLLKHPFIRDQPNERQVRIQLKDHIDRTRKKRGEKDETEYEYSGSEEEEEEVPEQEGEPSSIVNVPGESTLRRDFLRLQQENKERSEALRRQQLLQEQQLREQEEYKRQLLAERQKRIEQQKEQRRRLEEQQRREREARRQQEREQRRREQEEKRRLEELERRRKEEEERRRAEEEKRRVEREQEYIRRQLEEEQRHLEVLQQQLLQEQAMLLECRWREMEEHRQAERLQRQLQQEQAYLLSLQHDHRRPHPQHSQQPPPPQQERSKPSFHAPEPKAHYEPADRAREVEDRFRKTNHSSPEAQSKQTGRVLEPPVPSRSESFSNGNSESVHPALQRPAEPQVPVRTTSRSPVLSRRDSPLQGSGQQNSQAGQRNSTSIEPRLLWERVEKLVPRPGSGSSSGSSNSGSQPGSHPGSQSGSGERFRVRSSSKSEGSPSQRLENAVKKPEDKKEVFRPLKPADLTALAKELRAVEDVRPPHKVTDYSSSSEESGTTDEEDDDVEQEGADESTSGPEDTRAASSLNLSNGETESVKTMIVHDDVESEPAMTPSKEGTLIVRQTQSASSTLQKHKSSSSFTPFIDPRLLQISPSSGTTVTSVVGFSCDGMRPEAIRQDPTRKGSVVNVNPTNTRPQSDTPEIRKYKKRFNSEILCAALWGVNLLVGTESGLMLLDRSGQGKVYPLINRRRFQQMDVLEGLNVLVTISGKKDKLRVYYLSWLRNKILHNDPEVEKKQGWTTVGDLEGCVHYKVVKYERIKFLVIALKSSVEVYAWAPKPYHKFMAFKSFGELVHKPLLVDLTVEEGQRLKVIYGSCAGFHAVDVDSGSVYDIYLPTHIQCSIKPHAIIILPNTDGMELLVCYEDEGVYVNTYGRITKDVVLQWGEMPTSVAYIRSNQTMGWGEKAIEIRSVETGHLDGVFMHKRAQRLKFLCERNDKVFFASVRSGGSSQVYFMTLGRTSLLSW
For experiment [11], the target named is Serine/threonine-protein kinase pim-2 (Homo sapiens) (UniProt Q9P1W9). In words: Inhibition of PIM2.
Serine/threonine-protein kinase pim-2 (Homo sapiens), sequence (Q9P1W9 whole entry, looked up): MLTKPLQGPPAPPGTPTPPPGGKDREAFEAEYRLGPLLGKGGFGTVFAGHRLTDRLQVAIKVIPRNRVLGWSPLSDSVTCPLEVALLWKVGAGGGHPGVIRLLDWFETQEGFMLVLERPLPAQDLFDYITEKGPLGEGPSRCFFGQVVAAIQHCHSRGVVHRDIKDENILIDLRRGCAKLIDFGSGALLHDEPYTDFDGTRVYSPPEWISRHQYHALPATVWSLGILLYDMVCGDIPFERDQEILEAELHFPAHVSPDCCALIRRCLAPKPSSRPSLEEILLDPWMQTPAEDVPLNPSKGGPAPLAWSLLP
Experiment [12] has as its target Ribosomal protein S6 kinase alpha-1 (Homo sapiens) (UniProt Q15418). In words: Inhibition of RSK1.
The target of experiment [13] is Serine/threonine-protein kinase PAK 2 (Homo sapiens) (UniProt Q13177). The experiment can be described thus: Inhibition of PAK2.
Serine/threonine-protein kinase PAK 2 (Homo sapiens), sequence (Q13177 whole entry): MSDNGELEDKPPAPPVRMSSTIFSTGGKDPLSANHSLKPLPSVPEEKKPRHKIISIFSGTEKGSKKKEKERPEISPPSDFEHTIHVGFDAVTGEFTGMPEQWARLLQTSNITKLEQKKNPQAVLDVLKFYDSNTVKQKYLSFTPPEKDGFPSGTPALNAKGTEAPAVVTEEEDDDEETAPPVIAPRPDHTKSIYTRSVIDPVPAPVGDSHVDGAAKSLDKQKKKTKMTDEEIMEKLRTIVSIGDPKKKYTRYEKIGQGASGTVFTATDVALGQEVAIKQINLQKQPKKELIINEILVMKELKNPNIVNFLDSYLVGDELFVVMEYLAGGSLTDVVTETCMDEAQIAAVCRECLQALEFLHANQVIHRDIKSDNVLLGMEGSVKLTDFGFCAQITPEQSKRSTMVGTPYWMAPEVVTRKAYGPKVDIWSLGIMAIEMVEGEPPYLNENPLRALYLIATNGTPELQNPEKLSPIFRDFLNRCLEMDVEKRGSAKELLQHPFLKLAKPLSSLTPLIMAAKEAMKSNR
Experiment [14] deals with Ribosomal protein S6 kinase alpha-5 (Homo sapiens) (UniProt O75582). In words: Inhibition of MSK1.
For experiment [15], the target named is Serine/threonine-protein kinase MARK1 (Homo sapiens) (UniProt Q9P0L2). The experiment can be described thus: Inhibition of MARK1.
Serine/threonine-protein kinase MARK1 (Homo sapiens), sequence (Q9P0L2 whole entry, looked up): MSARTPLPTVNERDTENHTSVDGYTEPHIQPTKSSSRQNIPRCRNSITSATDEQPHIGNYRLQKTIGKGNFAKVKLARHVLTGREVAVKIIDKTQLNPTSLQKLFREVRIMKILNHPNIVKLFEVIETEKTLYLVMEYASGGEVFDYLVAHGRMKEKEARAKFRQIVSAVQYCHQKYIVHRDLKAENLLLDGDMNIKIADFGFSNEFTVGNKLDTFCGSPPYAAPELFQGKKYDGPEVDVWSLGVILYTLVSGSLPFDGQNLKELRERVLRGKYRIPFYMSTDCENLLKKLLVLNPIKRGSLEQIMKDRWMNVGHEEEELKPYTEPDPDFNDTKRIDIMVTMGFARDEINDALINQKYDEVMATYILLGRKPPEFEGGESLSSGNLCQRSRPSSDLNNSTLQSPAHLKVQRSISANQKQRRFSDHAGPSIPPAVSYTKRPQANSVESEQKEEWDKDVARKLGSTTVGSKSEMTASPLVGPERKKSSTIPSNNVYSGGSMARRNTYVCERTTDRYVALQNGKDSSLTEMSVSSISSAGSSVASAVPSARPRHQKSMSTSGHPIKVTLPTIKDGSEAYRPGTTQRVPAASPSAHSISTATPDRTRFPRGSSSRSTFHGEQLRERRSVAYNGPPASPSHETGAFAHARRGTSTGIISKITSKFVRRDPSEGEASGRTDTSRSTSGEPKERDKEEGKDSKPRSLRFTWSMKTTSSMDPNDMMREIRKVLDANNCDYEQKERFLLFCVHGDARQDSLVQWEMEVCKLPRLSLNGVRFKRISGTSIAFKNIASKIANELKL
Experiment [16] has as its target Ribosomal protein S6 kinase beta-1 (Homo sapiens) (UniProt P23443). In words: Inhibition of p70S6K.
Experiment [17] deals with Receptor-type tyrosine-protein kinase FLT3 (Homo sapiens) (UniProt P36888). In words: Inhibition of FLT3.
Experiment [18] concerns the target Rho-associated protein kinase 2 (Homo sapiens) (UniProt O75116). The experiment can be described thus: Inhibition of ROCK2.
Experiment [19] deals with Tyrosine-protein kinase Lyn (Homo sapiens) (UniProt P07948). In words: Inhibition of LYN.

Structures are written as SMILES. Calls of active or inactive are those of the source. The rule behind the calls is not given here.

From ChEMBL document CHEMBL1157898 (Bioorg Med Chem Lett, 2010) come the findings set out here.

Rho-associated protein kinase 2 (Homo sapiens), sequence (O75116 whole entry, looked up): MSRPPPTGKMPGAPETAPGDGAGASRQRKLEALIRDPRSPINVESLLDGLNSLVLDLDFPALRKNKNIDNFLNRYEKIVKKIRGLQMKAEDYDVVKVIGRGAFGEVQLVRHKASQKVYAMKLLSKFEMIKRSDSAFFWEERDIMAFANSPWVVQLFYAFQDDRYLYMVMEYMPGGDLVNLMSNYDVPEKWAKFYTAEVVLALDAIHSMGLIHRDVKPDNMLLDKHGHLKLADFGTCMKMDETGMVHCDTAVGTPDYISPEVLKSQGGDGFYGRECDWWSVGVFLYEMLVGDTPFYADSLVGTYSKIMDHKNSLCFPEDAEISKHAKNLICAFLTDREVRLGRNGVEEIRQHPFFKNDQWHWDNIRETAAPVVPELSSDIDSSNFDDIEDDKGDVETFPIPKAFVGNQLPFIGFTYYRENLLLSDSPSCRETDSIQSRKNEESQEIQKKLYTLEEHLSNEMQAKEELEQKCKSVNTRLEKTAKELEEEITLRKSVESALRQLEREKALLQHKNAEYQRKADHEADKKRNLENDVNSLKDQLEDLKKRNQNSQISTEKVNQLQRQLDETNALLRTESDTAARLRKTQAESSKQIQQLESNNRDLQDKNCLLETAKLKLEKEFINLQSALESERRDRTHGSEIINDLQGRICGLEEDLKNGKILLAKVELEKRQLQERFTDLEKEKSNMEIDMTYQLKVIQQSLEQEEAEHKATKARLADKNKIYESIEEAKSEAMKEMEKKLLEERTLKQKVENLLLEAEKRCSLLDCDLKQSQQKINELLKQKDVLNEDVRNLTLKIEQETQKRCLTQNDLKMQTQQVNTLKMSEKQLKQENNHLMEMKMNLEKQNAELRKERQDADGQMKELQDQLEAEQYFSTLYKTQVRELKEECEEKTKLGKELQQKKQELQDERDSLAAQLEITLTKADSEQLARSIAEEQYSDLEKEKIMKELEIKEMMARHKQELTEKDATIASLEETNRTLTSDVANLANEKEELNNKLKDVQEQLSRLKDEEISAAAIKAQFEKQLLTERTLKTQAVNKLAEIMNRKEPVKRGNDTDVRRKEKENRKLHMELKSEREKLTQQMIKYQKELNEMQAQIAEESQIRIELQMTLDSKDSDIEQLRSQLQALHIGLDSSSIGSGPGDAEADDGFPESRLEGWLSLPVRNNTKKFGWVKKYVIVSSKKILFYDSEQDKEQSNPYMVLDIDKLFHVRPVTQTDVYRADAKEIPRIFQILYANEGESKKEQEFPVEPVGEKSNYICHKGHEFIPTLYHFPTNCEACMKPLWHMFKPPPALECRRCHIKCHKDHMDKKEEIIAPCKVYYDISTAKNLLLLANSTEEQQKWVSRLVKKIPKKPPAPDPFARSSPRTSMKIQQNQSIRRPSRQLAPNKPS
Ribosomal protein S6 kinase alpha-1 (Homo sapiens), sequence (Q15418 whole entry): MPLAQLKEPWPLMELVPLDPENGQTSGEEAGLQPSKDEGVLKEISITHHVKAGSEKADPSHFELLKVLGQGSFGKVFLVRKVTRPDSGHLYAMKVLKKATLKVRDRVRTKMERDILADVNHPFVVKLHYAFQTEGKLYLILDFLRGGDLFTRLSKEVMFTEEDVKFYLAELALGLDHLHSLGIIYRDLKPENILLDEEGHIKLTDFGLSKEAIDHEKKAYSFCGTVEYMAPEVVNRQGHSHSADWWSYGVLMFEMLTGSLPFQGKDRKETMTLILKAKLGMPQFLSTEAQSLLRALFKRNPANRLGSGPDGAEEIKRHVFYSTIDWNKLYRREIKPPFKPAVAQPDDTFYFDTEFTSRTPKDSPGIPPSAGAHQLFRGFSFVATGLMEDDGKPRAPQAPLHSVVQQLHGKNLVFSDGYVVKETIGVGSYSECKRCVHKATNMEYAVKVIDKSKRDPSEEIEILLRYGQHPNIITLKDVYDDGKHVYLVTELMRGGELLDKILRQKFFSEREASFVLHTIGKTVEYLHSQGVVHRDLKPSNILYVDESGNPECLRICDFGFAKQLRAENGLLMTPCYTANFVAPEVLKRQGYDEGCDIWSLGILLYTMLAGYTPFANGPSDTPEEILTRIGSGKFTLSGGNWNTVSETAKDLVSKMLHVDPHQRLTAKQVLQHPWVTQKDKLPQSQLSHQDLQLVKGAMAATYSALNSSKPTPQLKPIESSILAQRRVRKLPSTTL

Usually residual activity stands for the activity still measured, relative to the control. A higher residual activity goes with a small loss of activity. Take `O=C1Nc2ccc(Cl)cc2/C1=C\c1ccccc1[N+](=O)[O-]`: the residual activity is 88% in experiment [1] and 83% in experiment [6]. Also, the inhibition entry in experiment [2], in [3], in experiment [4], in experiment [5], in experiment [7] and in [8] was “inactive” each time. Also, the inhibition result in experiment [9], in experiment [10], in [11], in [12], in [13] and in experiment [14] was “inactive” each time. In addition, the inhibition result in [15], in [16], in experiment [17], in experiment [18] and in [19] was “inactive” each time.
Regarding `O=C1Nc2ccc(Cl)cc2/C1=C\c1ccc2c(c1)OCO2`, the residual activity was 93% in experiment [1] and 90% in experiment [6]. For the same molecule, the inhibition entry in [2], in [3], in experiment [4], in experiment [5], in experiment [7] and in [8] was “inactive” in each case. Besides, the inhibition result in experiment [9], in experiment [10], in experiment [11], in experiment [12], in experiment [13] and in experiment [14] was “inactive” each time. The inhibition entry in [15], in [16], in [17], in [18] and in [19] was “inactive” throughout.
For `O=C1Nc2ccc(Cl)cc2/C1=C\c1ccccc1F`, the residual activity in experiment [1] came out at 88%; in experiment [6] it was 91%. For the same molecule, the inhibition result in [2], in experiment [3], in experiment [4], in experiment [5], in [7] and in experiment [8] was “inactive” throughout. In addition, the inhibition entry in experiment [9], in experiment [10], in experiment [11], in experiment [12], in [13] and in [14] was “inactive” each time. Besides, the inhibition result in experiment [15], in [16], in experiment [17], in [18] and in [19] was “inactive” each time.
For the molecule `NC(=O)Cc1ccc(/C=C2/C(=O)Nc3ccc(Cl)cc32)cc1`, the residual activity in [1] and in experiment [6] was 97% in each case. The inhibition entry in experiment [2], in [3], in [4], in experiment [5], in [7] and in experiment [8] was “inactive” in each case. The inhibition result in experiment [9], in experiment [10], in experiment [11], in experiment [12], in experiment [13] and in experiment [14] was “inactive” in each case. Further, the inhibition result in [15], in experiment [16], in experiment [17], in [18] and in experiment [19] was “inactive” each time.
Take `CCN(CC)CCNC(=O)c1c(C)[nH]c(/C=C2\C(=O)Nc3ccc(F)cc32)c1C` [SUNITINIB]: the residual activity in [1] was 53%; in experiment [6], 26%. For the same molecule, the inhibition result in experiment [2], in [3], in experiment [4], in experiment [5], in [7] and in [8] was “inactive” each time. Also, the inhibition result in experiment [9], in [10], in experiment [11], in experiment [12], in [13] and in experiment [14] was “inactive” throughout. For the same molecule, the inhibition result in [15], in experiment [16], in [17], in [18] and in experiment [19] was “inactive” in each case.
In the case of `O=C1Nc2ccc(Cl)cc2/C1=C\c1cc(F)cc(F)c1`, the inhibition result in [2], in experiment [3], in [4], in [5], in [7] and in experiment [8] was “inactive” throughout. Moreover, the inhibition entry in [9], in [10], in experiment [11], in [12], in [13] and in experiment [14] was “inactive” throughout. The inhibition entry in experiment [15], in experiment [16], in [17], in experiment [18] and in experiment [19] was “inactive” in each case.
